Columns and labels:
[1] = tested on: N^α -acetyltransferase activity of crude yeast lysate, wild-type (AAA1) strain T3A; assay: N^α -acetylation of peptide substrates by crude yeast lysate, wild-type strain; assay type: biochemical, Saccharomyces cerevisiae; conditions: for Activity (%) AAA1: crude lysate of wild-type strain T3A, mean ± SD (N=3-5), normalized to human adrenocorticotropic hormone (1-24), 50 μM peptide
Description: (§1) N^α -acetyltransferase activity was determined as previously described [Lee et al., J. Biol. Chem. 263:14948-14955 (1988)]. Aliquots of the lysate or chromatographic fractions were added to 1.5 ml Eppendorf tubes containing a reaction mixture of 50 mM HEPES, pH 7.4, 150 mM KCl, 1 mM DTT, 25 μM [^3 H] acetyl coenzyme A (0.5 μCi) and 50 μM synthetic peptide with an adjusted final volume of 100 μl. The assay mixture was incubated at 30° C. for 30 min. The reaction was stopped by adding 17 μl of 0.5M acetic acid and chilled in an ice bath. The reaction samples were filtered through SP membrane discs (Cuno) (previously pre-swollen in 0.5M acetic acid), and then washed three times with 1 ml of 0.5M acetic acid on a Millipore 1225 sampling manifold. The partially dried membranes were placed in scintillation cocktail and counted with a Beckman LS 3801 scintillation counter. One unit of activity was defined as the amount of enzyme able to transfer 1 pmol of [^3 H] acetyl group from [^3 H] acetyl coenzyme A to synthetic peptide per min under standard enzyme assay conditions defined above.
(§2) The wild-type (containing endogenous N^α -acetyltransferase activity) and the aaa1 (lacking endogenous N^α -acetyltransferase activity) strains were T3A and T3A-a, respectively (Lee, F-J. S., et al., J. Bacteriol. 171, 5795-5802 (1989)). Human adrenocorticotropic hormone (1-24), yeast alcohol dehydrogenase (1-24), and human superoxide dismutase (1-24) have either serine or alanine as amino-terminal residues, while proteinase A inhibitor 3 has a methionine residue. The synthesis of the peptide substrates, the preparation of the crude yeast homogenate, and the assay of enzyme activity were as previously described by Lee et al. (Lee, F-J. S., et al., J. Biol. Chem. 263:14948 (1988); Kamitani, K., et al., J. Biol. Chem. 264:13188 (1989)). The numbers in parentheses refer to the residue numbers, and the letters in parentheses specify the amino acid sequence. Abbreviations: A (alanine), C (cysteine), D (aspartic acid), E (glutamic acid), F (phenylalanine), G (glycine), H (histidine), I (isoleucine), K (lysine), L (leucine), M (methionine), N (asparagine), P (proline), Q (glutamine), R (arginine), S (serine), T (threonine), V (valine), W (tryptophan). Data are reported as mean activity±SD (N=3-5) and are normalized to the activity of the homogenate towards human adrenocorticotropic hormone (1-24).

[2] = molecular target: T1, N^α -acetyltransferase activity of crude yeast lysate, aaa1 mutant strain T3A-a (Saccharomyces cerevisiae, UniProt Q06504); assay: N^α -acetylation of peptide substrates by crude yeast lysate, aaa1 mutant strain; assay type: biochemical; conditions: for Activity (%) aaa1: crude lysate of aaa1 mutant strain T3A-a, mean ± SD (N=3-5), normalized to human adrenocorticotropic hormone (1-24), 50 μM peptide
T1 construct: a crude yeast homogenate from the aaa1 mutant strain; endogenous in cells; host or cells: Saccharomyces cerevisiae strain T3A-a (aaa1), crude lysate
T1 sequence (Q06504 1-195): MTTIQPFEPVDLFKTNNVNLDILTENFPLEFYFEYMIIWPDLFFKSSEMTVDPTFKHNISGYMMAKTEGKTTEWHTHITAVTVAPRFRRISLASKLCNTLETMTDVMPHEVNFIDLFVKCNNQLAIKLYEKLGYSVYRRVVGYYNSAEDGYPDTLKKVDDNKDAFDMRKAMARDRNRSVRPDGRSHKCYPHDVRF
T1 sequence (Q12387 1-796 partner): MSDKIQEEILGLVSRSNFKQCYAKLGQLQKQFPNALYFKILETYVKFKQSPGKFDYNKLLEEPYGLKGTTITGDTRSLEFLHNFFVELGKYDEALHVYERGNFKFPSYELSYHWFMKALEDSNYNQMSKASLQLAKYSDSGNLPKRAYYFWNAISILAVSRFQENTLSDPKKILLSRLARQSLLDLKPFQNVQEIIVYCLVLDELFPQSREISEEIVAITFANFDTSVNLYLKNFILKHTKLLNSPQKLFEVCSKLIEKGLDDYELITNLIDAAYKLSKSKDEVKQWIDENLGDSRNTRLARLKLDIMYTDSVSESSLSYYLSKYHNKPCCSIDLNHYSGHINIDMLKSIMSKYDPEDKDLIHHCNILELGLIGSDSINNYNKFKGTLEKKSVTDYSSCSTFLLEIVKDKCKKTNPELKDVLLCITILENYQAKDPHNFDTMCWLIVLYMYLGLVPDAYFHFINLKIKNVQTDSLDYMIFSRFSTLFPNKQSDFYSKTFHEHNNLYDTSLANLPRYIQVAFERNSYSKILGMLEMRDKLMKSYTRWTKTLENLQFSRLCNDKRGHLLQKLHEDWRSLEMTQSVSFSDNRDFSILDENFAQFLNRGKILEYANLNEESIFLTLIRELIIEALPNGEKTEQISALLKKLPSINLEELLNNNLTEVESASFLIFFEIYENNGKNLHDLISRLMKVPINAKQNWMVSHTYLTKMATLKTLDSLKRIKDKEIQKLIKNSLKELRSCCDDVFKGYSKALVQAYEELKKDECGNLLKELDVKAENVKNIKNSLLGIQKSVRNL
Description: as §1, §2

Substance	Activity (%) AAA1 [1] [%]	acetylation of the peptide substrate by wild-type strain ([1]; crude lysate, wild-type strain)	Activity (%) aaa1 [2] [%]	acetylation of the peptide substrate by aaa1 mutant ([2]; crude lysate, aaa1 mutant)
MNTDQQKVSEIFQSSKEKLQGDAK (MNTDQQKVSEIFQSSKEKLQGDAK) [Proteinase A Inhibitor 3 (1-24) (Yeast)]	75 ± 5	capable of acetylating	80 ± 5	capable of acetylating
SIPETQKGVIFYESHGKLEYKDIP (SIPETQKGVIFYESHGKLEYKDIP) [Alcohol dehydrogenase (1-24) (Yeast)]	102 ± 5	–	0	–
SYSMEHFRWGKPVGKKRRPVKVYP	100 ± 5	–	0	–
